Converted amounts (≈) assume the structure as drawn. Read-outs that look alike come from different tables or passages of the source.
Legend:
[1] = system: pHH3 in T47D P1 human palbociclib resistant ER+ breast cancer xenograft; assay: Pharmacodynamic effect in T47D P1 palbociclib resistant ER+ breast xenograft model; settings: 3 days dosing, Western blot
Protocol: A study was conducted to evaluate the in vivo pharmacodynamic response of monotherapy with a CDK2 inhibitor and combination therapy with a CDK2 inhibitor and palbociclib in a T47D P1 human palbociclib resistant ER+ breast cancer xenograft model.
T47D P1 cells were generated to be resistant to palbociclib through chronic treatment with palbociclib over the course of about three months with increasing concentrations up to 3 μM. The resulting cells (T47D P1) were then banked for use in subsequent experiments. T47D P1 cells were grown in phenol red free RPMI 1640 supplemented with 10% fetal bovine serum and 3 μM palbociclib. Cells were harvested with 0.25% trypsin and resuspended in PBS/phenol red free Matrigel (50/50).
10 Million T47D P1 cells were implanted orthotopically into the #3 mammary fat pad of female NSG mice. 0.5 mg 90 day release 17B-estradiol pellets from Innovative Research of America were implanted subcutaneously three days prior to cell implant. […] The time course of sample collection was as follows: (i) the test compound at 30 mg/kg groups with and without palbociclib treatment were collected at 2, 4 and 8 hours; and (ii) all other groups were collected at 2, 8 and 24 hours. pHH3 was evaluated by western blotting.

[2] = system: CTG-3283 human CDK4/6 resistant ER+ breast cancer xenograft; assay: Anti-tumor effect in CTG-3283 CDK4/6 resistant ER+ breast cancer xenograft model; format: in vivo, mice; settings: for % INHIBITION (end of dosing): 28 days
Protocol: CTG-3283 ER+ breast xenograft tumors were harvested from donor mice and cut into fragments approximately 50 mm^3 in volume and then reimplanted adjacent to the #3 mammary fat pad.
CTG-3283 ER+ Breast PDX fragments were implanted orthotopically adjacent to the #3 mammary fat pad using a 10-gauge trocar in female NSG mice. […] Palbociclib was dosed orally once daily.

[3] = system: pRB (S780) in MCF7-PC1 human palbociclib resistant ER+ breast cancer xenograft; assay: Pharmacodynamic effect (pRB) in MCF7-PC1 palbociclib resistant ER+ breast cancer xenograft model; format: in vivo, mice; settings: 3 days dosing, Western blot
Protocol: MCF7-PC1 cells were generated as described in Example 70.
Palbociclib was dosed orally once daily.

MCF-7 cells = assay: Cellular proliferation EdU assay, MCF-7; format: cell-based; settings: Homo sapiens, MCF7, 48 h, EdU assay, two days; read-out: MCF-7 IC50
Summary of the method: (§1)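 MCF-7 (800 cells/well) and OVCAR3 (1200 cells/well) in RPMI with 10% FBS exposed to compounds for two days at 37 °C.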

[4] = system: OVCAR3 human ovarian cancer xenograft; assay: Anti-tumor effect in CCNE1 amplified ovarian xenograft model OVCAR3; format: in vivo, mice; settings: for % INHIBITION: 28 days
Protocol: 15 Million OVCAR3 human ovarian cells were implanted subcutaneously in the right flank of female CB17 SCID mice. Mice were randomized into groups of 8 when average tumor volume reached approximately 160 mm^3. […] Palbociclib was dosed orally once daily.

SKOV3 cells = assay: Cell proliferation CyQUANT assay, SKOV3; format: cell-based; settings: Homo sapiens, SK-OV-3, 168 h; CyQUANT cell counts, 7 days
Protocol: (§2) An imaging-based assay was used to investigate changes in cell number in OVCAR3 cells (CCNE1-amplified ovarian cancer cell line) and SKOV3 cells (non-amplified ovarian cancer cell line) treated with test compounds.
(§3) Cells were plated in 384 well plates (Perkin-Elmer 6057300) in RPMI-1640/10% FBS/1× L-Glu at 500 cells per well in 30 μL and incubated with test compound at 37° C. and 5% CO2 for 7 days. Cells were then stained using the CyQuant Direct Cell Proliferation Assay Kit (Thermo Cat #C7026) in accordance with the kit protocol. The stained cells were imaged using an Operetta high content imager to generate cell counts and IC50 values were calculated relative to DMSO controls.

[5] = system: pRB (S780) in OVCAR3 human ovarian cancer xenograft; assay: Pharmacodynamic effect (pRB) in OVCAR3 xenograft model; format: in vivo, mice; settings: 3 days dosing, Western blot
Protocol: 15 Million OVCAR3 human ovarian cells were implanted subcutaneously in the right flank of female CB17 SCID mice. […] Palbociclib was dosed orally once daily.

OVCAR3 cells [6] = assay: Cell proliferation CyQUANT assay, OVCAR3; format: cell-based; settings: Homo sapiens, OVCAR-3, 168 h; CyQUANT cell counts, 7 days
Protocol: as §2, §3

[7] = system: POLR2A Ser2 phosphorylation (CDK9); assay: POLR2A Ser2 phosphorylation imaging assay in MCF-7 cells; format: cell-based; settings: Homo sapiens, MCF7, 2 h, read-out: POLR2A Ser2 phosphorylation IC50
Summary of the method: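 MCF-7 cells were fixed, permeabilised and immunostained for POLR2A phospho-Ser2, then imaged by high-content microscopy. Levels were normalised to controls and IC50 values derived.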

OVCAR3 cells [8] = assay: Effect on cell cycle in OVCAR3 cell line (flow cytometry); format: cell-based, human; settings: 20 to 24 hours, 0.03, 0.1, 0.3, 1, and 3 μM
Protocol: Compounds were tested in the CCNE1-amplified ovarian cell line OVCAR3 to assess their effect on cell cycle phases G1 and S and potential off-target effects on cell cycle phases G2 and M.
OVCAR3 cells were seeded at 60,000 cells per well in 24 well plates, 4 wells per sample, in RPMI with 10% Fetal bovine serum. Test compounds were diluted in 96 well plates in dimethyl sulfoxide (DMSO) and then added to the wells containing the cells. The 24 well plates were placed in an incubator maintained at 37° C. and 5% CO2 and incubated for 20 to 24 hours. The next day an EdU assay was performed following the manufacturer's protocol (Thermo Fisher, C10425 EdU Alexa Fluor 488). Antibody staining was carried out using PE Mouse Anti-Cleaved PARP (BD Biosciences Catalog No. 552933) and 4′,6-diamidino-2-phenylindole (DAPI). Cells were then analyzed by flow cytometry.

[9] = system: CTG-3298 human CDK4/6 resistant ER+ breast cancer xenograft; assay: Anti-tumor effect in CTG-3298 CDK4/6 resistant ER+ breast cancer xenograft model; format: in vivo, mice; settings: for % INHIBITION (end of dosing): 28 days
Protocol: CTG-3298 ER+ breast xenograft tumors were harvested from donor mice and cut into fragments approximately 50 mm^3 in volume and then reimplanted adjacent to the #3 mammary fat pad.
CTG-3298 ER+ Breast PDX fragments were implanted orthotopically adjacent to the #3 mammary fat pad using a 10-gauge trocar in female NSG mice. […] Palbociclib was dosed orally once daily.

[10] = system: pRB (S780) in CTG-3283 human CDK4/6 resistant ER+ breast cancer xenograft; assay: Pharmacodynamic effect (pRB) in CTG-3283 xenograft model; settings: 3 days dosing, Western blot
Protocol: A study was conducted to evaluate the in vivo pharmacodynamic response of monotherapy with a CDK2 inhibitor and combination therapy with a CDK2 inhibitor and palbociclib in a CTG-3283 human CDK4/6 resistant ER+ breast cancer xenograft model.
CTG-3283 fragments were implanted adjacent to the #3 mammory fat pad of female NSG mice. […] Mice were treated for 3 days with vehicle (0.5% HPMC/0.1% Tween 80), palbociclib at 50 mg/kg, test compound at 30 or 60 mg/kg, or the combination of test compound and palbociclib. Test compound was dosed orally twice daily 10 hours apart on day one and two and a single dose in the morning on day 3. Palbociclib was dosed orally once daily. When administered in combination with test compound, palbociclib was dosed 4 hours after the morning dose of test compound on days one and two and 15 minutes after the morning dose of test compound on day 3. The time course of sample collection was as follows: (i) the test compound at 30 mg/kg groups with and without palbociclib treatment were collected at 2, 4, and 8 hours; (ii) all other groups were collected at 2, 8, and 24 hours. pRB (S780) was evaluated by western blotting.

[11] = system: pRB (S780) in CTG-3298 human CDK4/6 resistant ER+ breast cancer xenograft; assay: Pharmacodynamic effect (pRB) in CTG-3298 xenograft model; settings: 3 days dosing, Western blot
Protocol: A study was conducted to evaluate the in vivo pharmacodynamic response of monotherapy with a CDK2 inhibitor and combination therapy with a CDK2 inhibitor and palbociclib in a CTG-3298 human CDK4/6 resistant ER+ breast cancer xenograft model.
CTG-3298 fragments were implanted adjacent to the #3 mammory fat pad of female NSG mice. […] Mice were treated for 3 days with vehicle (0.5% HPMC/0.1% Tween 80), palbociclib at 50 mg/kg, test compound at 30 or 60 mg/kg, or the combination of test compound and palbociclib. Test compound was dosed orally twice daily 10 hours apart on day one and two and a single dose in the morning on day 3. Palbociclib was dosed orally once daily. When administered in combination with test compound, palbociclib was dosed 4 hours after the morning dose of test compound on days one and two and 15 minutes after the morning dose of test compound on day 3. The time course of sample collection was as follows: (i) the test compound at 30 mg/kg groups with and without palbociclib treatment were collected at 2, 4 and 8 hours; (ii) all other groups were collected at 2, 8, and 24 hours. pRB (S780) was evaluated by western blotting.

OVCAR3 cells [12] = assay: Cellular proliferation EdU assay, OVCAR3; format: cell-based, human; settings: Homo sapiens, OVCAR-3, 48 h, EdU assay, two days; read-out: OVCAR3 IC50
Summary of the method: as §1

[13] = CLint assessment in human liver microsomes (HLM); format: in vitro ADME; settings: 1 μM
Summary of the method: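 Microsomes preincubated 8 min with NADPH, then compound added and incubated 30 min at 37° C. Remaining compound measured by LC-MS/MS. t1/2 and CLint calculated, with CLint scaled to incubation volume per mg microsomal protein.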

CDK4:CCND1 = CDK4:CCND1 (Homo sapiens (Human), UniProt P11802); assay: NanoBRET assay in MCF-7 cells, CDK4; format: cell-based; settings: NanoBRET, transfected MCF-7 cells, 2 hours; n = 1 or average; read-out: CDK4 IC50
Chain of CDK4:CCND1 (P11802 whole entry): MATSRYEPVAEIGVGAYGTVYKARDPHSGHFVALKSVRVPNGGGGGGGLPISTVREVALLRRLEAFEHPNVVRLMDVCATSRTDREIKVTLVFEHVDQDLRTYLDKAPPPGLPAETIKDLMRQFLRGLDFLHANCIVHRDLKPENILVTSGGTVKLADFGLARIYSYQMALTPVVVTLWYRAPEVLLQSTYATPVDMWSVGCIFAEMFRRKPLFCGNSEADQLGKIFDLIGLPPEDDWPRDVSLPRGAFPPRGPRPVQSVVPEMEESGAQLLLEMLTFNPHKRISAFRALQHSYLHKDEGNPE
Chain of CDK4:CCND1 (P24385 whole entry partner): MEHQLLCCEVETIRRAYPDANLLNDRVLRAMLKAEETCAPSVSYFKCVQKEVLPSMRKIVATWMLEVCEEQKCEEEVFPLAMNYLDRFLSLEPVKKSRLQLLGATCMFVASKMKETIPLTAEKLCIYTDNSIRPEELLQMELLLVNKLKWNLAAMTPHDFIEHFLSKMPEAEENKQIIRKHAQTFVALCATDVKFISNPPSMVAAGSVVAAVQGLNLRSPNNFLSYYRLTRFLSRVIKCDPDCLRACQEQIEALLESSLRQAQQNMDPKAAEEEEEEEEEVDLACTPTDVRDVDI
Summary of the method: (§4)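 Transiently transfected MCF-7 cells expressing CDK1:CCNB1 or CDK4:CCND1 were treated with compound plus tracer (CDK1: Tracer K-9, 400 μM stock; CDK4: Tracer K-7, 100 μM stock) for 2 h at 37 °C.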

[14] = system: NPM phosphorylation (Thr199, CDK2-cyclin E complex); assay: NPM phosphorylation imaging assay in MCF-7 cells; format: cell-based; settings: Homo sapiens, MCF7, 2 hours, 4N DNA cells
Summary of the method: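 MCF-7 cells were fixed, permeabilised and immunostained, then imaged for phospho-NPM (Thr199), a CDK2-cyclin E site. Analysis was gated on 4N-DNA cells by Hoechst staining. Signals were normalised to controls and fitted for IC50.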

CDK2:CCNE1 = CDK2:CCNE1 (Homo sapiens (Human), UniProt P24941); assay: NanoBRET assay in MCF-7 cells, CDK2; format: cell-based; settings: transfected MCF-7 cells, 2 hours, n = 1 or average
Summary of the method: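 In live MCF-7 cells, compound added followed by NanoBRET TE Tracer K-9 (stock 200 μM) for CDK2, 2 h at 37° C, 5% CO2.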

CDK1:CCNB1 = CDK1:CCNB1 (Homo sapiens (Human), UniProt P06493); assay: NanoBRET assay in MCF-7 cells, CDK1; format: cell-based; settings: NanoBRET, transfected MCF-7 cells, 2 hours; n = 1 or average; read-out: CDK1 IC50
Chain of CDK1:CCNB1 (P06493 whole entry): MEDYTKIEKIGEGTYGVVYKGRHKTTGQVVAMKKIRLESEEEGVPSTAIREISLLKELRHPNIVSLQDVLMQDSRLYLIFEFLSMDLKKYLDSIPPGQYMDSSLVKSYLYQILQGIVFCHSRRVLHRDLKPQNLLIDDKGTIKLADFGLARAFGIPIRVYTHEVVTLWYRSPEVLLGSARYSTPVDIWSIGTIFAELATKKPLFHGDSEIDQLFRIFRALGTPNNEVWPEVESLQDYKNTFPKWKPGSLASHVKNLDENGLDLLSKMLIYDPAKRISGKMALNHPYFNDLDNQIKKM
Chain of CDK1:CCNB1 (P14635 whole entry partner): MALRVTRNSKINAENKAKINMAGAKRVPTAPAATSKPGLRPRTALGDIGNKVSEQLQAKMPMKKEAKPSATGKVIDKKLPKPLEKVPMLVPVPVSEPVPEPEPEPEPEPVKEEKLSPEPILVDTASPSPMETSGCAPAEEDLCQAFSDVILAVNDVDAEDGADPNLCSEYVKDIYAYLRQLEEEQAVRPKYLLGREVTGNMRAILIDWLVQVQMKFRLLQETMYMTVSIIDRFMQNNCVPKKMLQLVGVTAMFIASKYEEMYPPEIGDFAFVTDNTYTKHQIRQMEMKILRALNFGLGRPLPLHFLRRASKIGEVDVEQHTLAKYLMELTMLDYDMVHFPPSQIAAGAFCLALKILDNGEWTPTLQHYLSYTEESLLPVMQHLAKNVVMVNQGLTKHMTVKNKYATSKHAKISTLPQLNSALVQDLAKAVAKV
Summary of the method: as §4

[15] = CLint assessment in human hepatocytes (HH); format: in vitro ADME; design: unit not given here; settings: pH 7.4
Protocol: Samples were shaken at 800 rpm for 2 minutes and centrifuged at 4000 rpm for 20 minutes at 4° C. to pellet precipitated protein. The supernatant fraction was diluted 1:5 with deionized water, shaken at 1000 rpm for 2 minutes, and further diluted 1:1 with deionized water. Samples were analyzed by LC-MS/MS.

[16] = Aqueous thermodynamic solubility, shake-flask; format: physicochemical; settings: aqueous phosphate buffer, 25 °C, pH 7.4, aqueous buffer, thermodynamic from solid, phosphate buffer 0.1 M, pH 7.4, 24 hours
Summary of the method: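 Dried compound (after DMSO evaporation) was equilibrated in 0.1 M phosphate buffer pH 7.4 with stirring for 24 h at 25° C. Undissolved material was removed by double centrifugation, and the supernatant was diluted in water and quantified by UPLC/MS/MS.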

[17] = Compound 6 at 30 mg/kg orally twice daily
[18] = Compound 6 at 60 mg/kg orally twice daily

With `CCNS(=O)(=O)N1CC[C@H](Nc2nc(N[C@@H](CC)[C@@H](C)O)nc3c2ncn3CC)C1` [Compound 6, (S)—N-ethyl-3-((9-ethyl-2-(((2R,3S)-2-hydroxypentan-3-yl)amino)-9H-purin-6-yl)amino)pyrrolidine-1-sulfonamide] the pHH3 levels [1] was “time dependent inhibition of pHH3”, the tumor growth inhibition ([2]; CTG-3283 xenograft, Compound 6 at 30 and 60 mg/kg monotherapy or combination with palbociclib) was “lower inhibition of tumor growth” and the “% INHIBITION (end of dosing)” value [2, 17] was 28%. For the same compound, the “% INHIBITION (end of dosing)” value [2, 18] was 21%, the pRB levels [3] was “time dependent inhibition of pRB” and the IC50 (MCF-7 cells) was 0.278 µM. For the same compound, the “% INHIBITION” value [4, 17] was 31%, the “% INHIBITION” value ([4]; Compound 6 at 100 mg/kg orally twice daily) was 94% and the “% INHIBITION” value ([4]; Compound 6 at 150 mg/kg orally twice daily) was over 100%. The “durability on monitoring for regrowth” value ([4]; Compound 6 at 150 mg/kg, compared to Compound 6 at 100 mg/kg group) was “showed increased durability”, the IC50 (SKOV3 cells) was 1.97 µM and the pRB levels [5] was “time dependent inhibition of pRB”. The IC50 (OVCAR3 cells [6]) was 0.077 µM, the IC50 [7] was over 19.3 µM and the “effect on cell cycle phase” value (OVCAR3 cells [8]) was “increased the population of cells in the G0 and G1 phases”. For the same compound, the “% INHIBITION (end of dosing)” value [9, 17] was 82%, the “% INHIBITION (end of dosing)” value [9, 18] was 87% and the durability of response ([9]; Compound 6 at 60 mg/kg without palbociclib) was “more durable response”. For the same compound, the pRB levels [10] was “dose dependent inhibition of pRB” and the pRB levels [11] was “dose dependent inhibition of pRB”.
With `CC[C@H](CO)Nc1nc(N[C@H]2CCN(S(=O)(=O)NC)C2)c2ncn(CC)c2n1` [Example 47, (S)-3-((9-ethyl-2-(((R)-1-hydroxybutan-2-yl)amino)-9H-purin-6-yl)amino)-N-methylpyrrolidine-1-sulfonamide] the IC50 (OVCAR3 cells [12]) was 0.185 µM, the “HLM CLint” value [13] was 26 µL/min/mg and the IC50 (MCF-7 cells) was 0.705 µM. It also gave an IC50 (CDK4:CCND1) of 7.4 µM, an IC50 ([7]; MCF-7 cells, 2 hours) of over 30 µM and an IC50 [14] of 0.152 µM. It also gave an IC50 (CDK2:CCNE1) of 0.035 µM, an IC50 (CDK1:CCNB1) of 0.562 µM and a microsomal CLint at 1 μM [15] of under 1. It also gave a solubility at 24 h [16] of 253 µM (≈ 104 µg/mL).

From US20250197425A1, “2,6,9-TRISUBSTITUTED PURINES” (ASTRAZENECA AB, priority 2022, published 2025)
